# In patent US20140221361A1, “C-19 MODIFIED TRITERPENOIDS WITH HIV MATURATION INHIBITORY ACTIVITY” (priority 2013, published 2014):
# Tested on: recombinant NL4-3 virus (Renilla luciferase in nef, Gag P373S)
# Assay: HIV cell culture assay (luciferase reporter, MT-2 cells)
# Assay type: cell-based, HIV-1
# Details: Renilla, NL43, MT-2 cells infected for 4-5 days with NLRluc recombinants; luciferase activity; serial dilutions of inhibitor
# How it was run: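 MT-2 cells infected with recombinant NL4-3 carrying Renilla luciferase in place of part of nef and Gag P373S, virus made by 293T transfection. Infection ran 4-5 days with serial inhibitor dilutions. Antiviral activity read as luciferase activity (Dual Luciferase reagents mixed with lysis buffer).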
row,SMILES,EC50 [nM]
1,"CC1([C@@H]2CC[C@]3(NCCN4CCS(=O)(=O)CC4)CC[C@]4(C)[C@H](CC[C@@H]5[C@@]6(C)CC=C(c7ccc(C(=O)O)cc7)C(C)(C)[C@@H]6CC[C@]54C)[C@@H]23)CC1 [Example B52, 4-((1R,3aS,5aR,5bR,7aR,11aS,11bR,13aR,13bR)-3a-((2-(1,1-dioxidothiomorpholino)ethyl)amino)-5a,5b,8,8,11a-pentamethyl-1-(1-methylcyclopropyl)-2,3,3a,4,5,5a,5b,6,7,7a,8,11,11a,11b,12,13,13a,13b-octadecahydro-1H-cyclopenta[a]chrysen-9-yl)benzoic acid]",0.924
2,"CC1([C@@H]2CC[C@]3(NCCN4CCC(S(C)(=O)=O)CC4)CC[C@]4(C)[C@H](CC[C@@H]5[C@@]6(C)CC=C(c7ccc(C(=O)O)cc7)C(C)(C)[C@@H]6CC[C@]54C)[C@@H]23)CC1 [Example B53, 4-((1R,3aS,5aR,5bR,7aR,11aS,11bR,13aR,13bR)-5a,5b,8,8,11a-pentamethyl-1-(1-methylcyclopropyl)-3a-(2-(4-(methylsulfonyl)piperidin-1-yl)ethylamino)-2,3,3a,4,5,5a,5b,6,7,7a,8,11,11a,11b,12,13,13a,13b-octadecahydro-1H-cyclopenta[a]chrysen-9-yl)benzoic acid]",1.03
3,"CC1([C@@H]2CC[C@]3(N)CC[C@]4(C)[C@H](CC[C@@H]5[C@@]6(C)CC[C@H](c7ccc(C(=O)O)cc7)C(C)(C)[C@@H]6CC[C@]54C)[C@@H]23)CC1 [Example B54, 4-((1R,3aS,5aR,5bR,7aS,9S,11aS,11bR,13aR,13bR)-3a-amino-5a,5b,8,8,11a-pentamethyl-1-(1-methylcyclopropyl)icosahydro-1H-cyclopenta[a]chrysen-9-yl)benzoic acid]",0.577
4,CN[C@]12CC[C@@H](C3(C)CC3)[C@@H]1[C@H]1CC[C@@H]3[C@@]4(C)CC[C@H](c5ccc(C(=O)O)cc5)C(C)(C)[C@@H]4CC[C@@]3(C)[C@]1(C)CC2 [Example B55],1.51
5,"CC1([C@@H]2CC[C@]3(NCCN4CCN(S(C)(=O)=O)CC4)CC[C@]4(C)[C@H](CC[C@@H]5[C@@]6(C)CC=C(c7ccc(C(=O)O)cc7)C(C)(C)[C@@H]6CC[C@]54C)[C@@H]23)CC1 [Example B56, 4-((1R,3aS,5aR,5bR,7aR,11aS,11bR,13aR,13bR)-5a,5b,8,8,11a-pentamethyl-1-(1-methylcyclopropyl)-3a-(2-(4-(methylsulfonyl)piperazin-1-yl)ethylamino)-2,3,3a,4,5,5a,5b,6,7,7a,8,11,11a,11b,12,13,13a,13b-octadecahydro-1H-cyclopenta[a]chrysen-9-yl)benzoic acid]",2.51
